Columns and labels:
Hygroscopicity by DVS = type: physicochemical
Procedure: • Method 1 (for I-1 Form A and I-3 Form A) • Instrument Intrinsic, Advantage or Adventure • Total gas flow 200 sccm • Oven temperature 25° C. • Solvent Water • Method Cycle: 40-0-95-0-40% RH • Stage Step: 10% • Equilibrium: 0.002 dm/dt (%/min) • Minimum dm/dt stability duration: 60 min • Maximum dm/dt stage time: 360 min • Method 2 (for I-4 Form A) • Instrument Intrinsic, Advantage or Adventure • Total gas flow 200 sccm • Oven temperature 25° C. • Solvent Water • Method Cycle: 40-95-0-95-40% RH • Stage Step: 10% • Equilibrium: 0.002 dm/dt (%/min) • Minimum dm/dt stability duration: 60 min • Maximum dm/dt stage time: 360 min
I-1 Form A is hygroscopic. It absorbs about 5.5% water by weight from 40% RH to 95% RH. […] It absorbs about 40% water by weight from 40% RH to 95% RH. Form changed after the DVS test. […] It starts to absorb water when RH>40% and potential hydrate form generates at high humidity based on DVS data. The sorption and desorption are reversible.
Water sorption and desorption behavior of I-1 Form A, I-3 Form A, and I-4 Form A was investigated by DVS at 25° C. with a cycle of 40-0-95-0-40% RH, dm/dt 0.002, min. equilibration time 60 min and max. equilibration time 360 min. XRPD was measured after the DVS test to determine form change.

[1] = Salt screening (XRPD, chiral purity of hits); type: physicochemical; details: for Chiral purity (by HPLC) / Crystallinity (By XRPD): crystalline hits of salt screening
Procedure: Based on the pKa of I-1 free form, 23 counter ions were selected as salt/cocrystal forming agents. Methanol, acetone and isopropyl acetate were used as screening solvents. 1.0 equivalent of selected counter ions/coformers was applied for salt screening. Slurry equilibration, slow evaporation and anti-solvent addition were used as crystallization methods. In total, about 70 screening experiments were conducted.
About 50 mg of I-1 Form A were added to a suitable amount of solvent and 1.0 equivalent of counter ions were added under stirring at 50° C. for 2 hours and then at 25° C. for at least 12 hours. MeOH, acetone and IPAc were used as screening solvents.
Obtained suspensions were taken out and centrifuged. Solids obtained were analyzed by XRPD and salt screening results were summarized in Table 5.1, Table 5.2, and Table 5.3.

[2] = DVS 25° C., 0% RH, listed as I-4 Form A
[3] = DVS 25° C., 10% RH, listed as I-4 Form A
[4] = DVS 25° C., 20% RH, listed as I-4 Form A
[5] = DVS 25° C., 30% RH, listed as I-4 Form A
[6] = DVS 25° C., 40% RH, listed as I-4 Form A
[7] = DVS 25° C., 50% RH, listed as I-4 Form A
[8] = DVS 25° C., 60% RH, listed as I-4 Form A
[9] = DVS 25° C., 70% RH, listed as I-4 Form A
[10] = DVS 25° C., 80% RH, listed as I-4 Form A
[11] = DVS 25° C., 90% RH, listed as I-4 Form A
[12] = DVS 25° C., 95% RH, listed as I-4 Form A
[13] = DVS 25° C., 0% RH, listed as I-3 Form A
[14] = DVS 25° C., 10% RH, listed as I-3 Form A
[15] = DVS 25° C., 20% RH, listed as I-3 Form A
[16] = DVS 25° C., 30% RH, listed as I-3 Form A
[17] = DVS 25° C., 40% RH, listed as I-3 Form A
[18] = DVS 25° C., 50% RH, listed as I-3 Form A
[19] = DVS 25° C., 60% RH, listed as I-3 Form A
[20] = DVS 25° C., 70% RH, listed as I-3 Form A
[21] = DVS 25° C., 80% RH, listed as I-3 Form A
[22] = DVS 25° C., 90% RH, listed as I-3 Form A
[23] = DVS 25° C., 95% RH, listed as I-3 Form A

Structure (SMILES): N#Cc1c(-c2cc(NC(=O)c3cc(F)cc(C(F)(F)F)c3)c3c(c2)C(=O)N[C@H]3c2cc(F)ccc2Cl)ccc2ncnn12 [Compound I-4]
- 1st Desorp. (%) (Hygroscopicity by DVS; [2]): 0.01%
- 2nd Sorp. (%) (Hygroscopicity by DVS; [2]): 0.01%
- 1st Desorp. (%) (Hygroscopicity by DVS; [3]): 1.52%
- 2nd Sorp. (%) (Hygroscopicity by DVS; [3]): 0.98%
- 1st Desorp. (%) (Hygroscopicity by DVS; [4]): 2.78%
- 2nd Sorp. (%) (Hygroscopicity by DVS; [4]): 1.76%
- 1st Desorp. (%) (Hygroscopicity by DVS; [5]): 3.61%
- 2nd Sorp. (%) (Hygroscopicity by DVS; [5]): 2.64%
- 1st Desorp. (%) (Hygroscopicity by DVS; [6]): 4.52%
- 1st Sorp. (%) (Hygroscopicity by DVS; [6]): 1.62%
- 2nd Desorp. (%) (Hygroscopicity by DVS; [6]): 4.51%
- 2nd Sorp. (%) (Hygroscopicity by DVS; [6]): 3.57%
- 1st Desorp. (%) (Hygroscopicity by DVS; DVS 25° C., 50% RH): 5.78%
- 2nd Sorp. (%) (Hygroscopicity by DVS; DVS 25° C., 50% RH): 4.63%
- 1st Sorp. (%) (Hygroscopicity by DVS; [7]): 3.50%
- 2nd Desorp. (%) (Hygroscopicity by DVS; [7]): 5.71%
- 1st Desorp. (%) (Hygroscopicity by DVS; DVS 25° C., 60% RH): 7.60%
- 2nd Sorp. (%) (Hygroscopicity by DVS; DVS 25° C., 60% RH): 6.22%
- 1st Sorp. (%) (Hygroscopicity by DVS; [8]): 4.75%
- 2nd Desorp. (%) (Hygroscopicity by DVS; [8]): 7.44%
- 1st Desorp. (%) (Hygroscopicity by DVS; DVS 25° C., 70% RH): 11.14%
- 2nd Sorp. (%) (Hygroscopicity by DVS; DVS 25° C., 70% RH): 9.34%
- 1st Sorp. (%) (Hygroscopicity by DVS; [9]): 6.87%
- 2nd Desorp. (%) (Hygroscopicity by DVS; [9]): 10.54%
- 1st Desorp. (%) (Hygroscopicity by DVS; DVS 25° C., 80% RH): 16.84%
- 2nd Sorp. (%) (Hygroscopicity by DVS; DVS 25° C., 80% RH): 15.03%
- 1st Sorp. (%) (Hygroscopicity by DVS; [10]): 12.16%
- 2nd Desorp. (%) (Hygroscopicity by DVS; [10]): 17.11%
- 1st Desorp. (%) (Hygroscopicity by DVS; DVS 25° C., 90% RH): 31.04%
- 2nd Sorp. (%) (Hygroscopicity by DVS; DVS 25° C., 90% RH): 27.39%
- 1st Sorp. (%) (Hygroscopicity by DVS; [11]): 25.12%
- 2nd Desorp. (%) (Hygroscopicity by DVS; [11]): 32.94%
- 1st Desorp. (%) (Hygroscopicity by DVS; DVS 25° C., 95% RH): 42.35%
- 2nd Sorp. (%) (Hygroscopicity by DVS; DVS 25° C., 95% RH): 44.74%
- 1st Sorp. (%) (Hygroscopicity by DVS; [12]): 42.35%
- 2nd Desorp. (%) (Hygroscopicity by DVS; [12]): 44.74%
- XRPD after DVS test (Hygroscopicity by DVS; DVS 25° C., cycle 40-0-95-0-40% RH, listed as I-4 Form A): Form changed
- hygroscopicity (Hygroscopicity by DVS; DVS at 25° C., listed as I-4 Form A): very hygroscopic
- water absorbed (Hygroscopicity by DVS; from 40% RH to 95% RH, 25° C., listed as I-4 Form A): about 40 % water by weight
- form after the DVS test (XRPD) (Hygroscopicity by DVS; listed as I-4 Form A): Form changed
- Salt screening result (anti-solvent) ([1]; 1.0 equiv. methanesulfonic acid, Acetone/MTBE): + (I-4 Form A) (Salt hits)
- Chiral purity of salt screening solid ([1]; anti-solvent, 1.0 equiv. methanesulfonic acid, Acetone/MTBE): Chiral purity: 98.3%
- Chiral purity (by HPLC) ([1]; listed as I-4 Form A): 98.3%
- Crystallinity (By XRPD) ([1]; listed as I-4 Form A): Low

Structure (SMILES): N#Cc1c(-c2cc(NC(=O)c3cc(F)cc(C(F)(F)F)c3)c3c(c2)C(=O)N[C@H]3c2cc(F)ccc2Cl)ccc2ncnn12 [Compound I-3]
- 1st Desorp. (%) (Hygroscopicity by DVS; [13]): 0.05%
- 1st Sorp. (%) (Hygroscopicity by DVS; [13]): 0.05%
- 2nd Desorp. (%) (Hygroscopicity by DVS; [13]): 0.00%
- 2nd Sorp. (%) (Hygroscopicity by DVS; [13]): 0.00%
- 2nd Desorp. (%) (Hygroscopicity by DVS; DVS 25° C., 10% RH): 0.11%
- 1st Desorp. (%) (Hygroscopicity by DVS; [14]): 0.16%
- 1st Sorp. (%) (Hygroscopicity by DVS; [14]): 0.15%
- 2nd Sorp. (%) (Hygroscopicity by DVS; [14]): 0.10%
- 1st Desorp. (%) (Hygroscopicity by DVS; [15]): 0.27%
- 1st Sorp. (%) (Hygroscopicity by DVS; [15]): 0.26%
- 2nd Desorp. (%) (Hygroscopicity by DVS; [15]): 0.22%
- 2nd Sorp. (%) (Hygroscopicity by DVS; [15]): 0.21%
- 1st Desorp. (%) (Hygroscopicity by DVS; [16]): 0.40%
- 1st Sorp. (%) (Hygroscopicity by DVS; [16]): 0.38%
- 2nd Desorp. (%) (Hygroscopicity by DVS; [16]): 0.37%
- 2nd Sorp. (%) (Hygroscopicity by DVS; [16]): 0.35%
- 1st Desorp. (%) (Hygroscopicity by DVS; [17]): 0.69%
- 1st Sorp. (%) (Hygroscopicity by DVS; [17]): 0.67%
- 2nd Desorp. (%) (Hygroscopicity by DVS; [17]): 2.11%
- 2nd Sorp. (%) (Hygroscopicity by DVS; [17]): 0.81%
- 1st Sorp. (%) (Hygroscopicity by DVS; [18]): 2.34%
- 2nd Desorp. (%) (Hygroscopicity by DVS; [18]): 2.44%
- 1st Sorp. (%) (Hygroscopicity by DVS; [19]): 2.53%
- 2nd Desorp. (%) (Hygroscopicity by DVS; [19]): 2.64%
- 1st Sorp. (%) (Hygroscopicity by DVS; [20]): 2.84%
- 2nd Desorp. (%) (Hygroscopicity by DVS; [20]): 4.17%
- 1st Sorp. (%) (Hygroscopicity by DVS; [21]): 4.29%
- 2nd Desorp. (%) (Hygroscopicity by DVS; [21]): 4.45%
- 1st Sorp. (%) (Hygroscopicity by DVS; [22]): 4.64%
- 2nd Desorp. (%) (Hygroscopicity by DVS; [22]): 4.76%
- 1st Sorp. (%) (Hygroscopicity by DVS; [23]): 5.36%
- 2nd Desorp. (%) (Hygroscopicity by DVS; [23]): 5.36%
- form after the DVS test (XRPD) (Hygroscopicity by DVS; listed as I-3 Form A): still I-3 Form A
- Salt screening result (slurry crystallization) ([1]; 1.0 equiv. p-toluenesulfonic acid, Acetone): + (I-3 Form A) (Salt hits)
- Salt screening result (slurry crystallization) ([1]; 1.0 equiv. p-toluenesulfonic acid, Isopropyl acetate): + (I-3 Form A) (Salt hits)
- Salt screening result (slurry crystallization) ([1]; 1.0 equiv. p-toluenesulfonic acid, MeOH): + (I-3 Form A) (Salt hits)
- chiral stability in salt screening and scale up solvents ([1]; MeOH, acetone and IPAc, acetone): good chiral stability
- Chiral purity (by HPLC) ([1]; listed as I-3 Form A): 99.8%
- Crystallinity (By XRPD) ([1]; listed as I-3 Form A): High
- Chiral purity of salt screening solid ([1]; slurry, 1.0 equiv. p-toluenesulfonic acid, Acetone): Chiral purity: 99.8%

Reference: patent publication US20260125374A1, “PI3K-ALPHA INHIBITORS AND METHODS OF MAKING AND USING THE SAME” (Relay Therapeutics, Inc., priority 2021, published 2026)
